≈ marks a conversion by molar mass, not a printed value. Where two headings read alike, the source gives them in different places.
Assays:
[1] = Determination of compound solubility in PBS buffer (LC-MS/MS); type: physicochemical; details: for solubility at 2 h: PBS buffer, aqueous buffer, kinetic from dmso stock, stirred 2 hours, read-out: Solubility
Protocol: The test compounds were 7, 67 and 85, respectively; the control compound was silymarin, purchased from Shanghai Dibai Biotechnology Co., Ltd., with the batch number HH06. Both the test compounds and the control compound were prepared into 10 mM stock solutions using DMSO. Phosphate buffered saline (PBS), with pH of 4.0 and 7.4, was used to test the solubility of the test compounds.
Treatment of test compound and control compound: 30 μL of test compound or control compound stock solution (10 mM) per well was added in a specially made solubility sample plate, and then 970 μL of PBS with different pH was added to each well (pH was 4.0 and 7.4, respectively). Repeated wells were set in the test. A stir bar was added to each well that was covered with a polytetrafluoroethylene or silica gel plug. Stirring was performed at 25° C. at 1100 rpm for 2 hours. 10 μL of sample was taken from each well, and then 990 μL of water and acetonitrile mixture (including internal standard substance) was added to mix well, followed by filtering with a filter plate.
Standard treatment: 10 mM stock solution was diluted with DMSO to 300 μM, then 10 μL of compound diluent was taken, and 990 μL of water and acetonitrile mixture (including internal standard substance) was added to mix well and formulated into a standard solution with the final concentration 3 μM.
The solubility sample plate was placed in the autosampler and the LC-MS/MS method was used for analysis. The concentration of the test compound was calculated by the response value of the test compound and standard, and the concentration of the standard.

[2] = test system: NASH mice; experiment: Efficacy on non-alcoholic steatohepatitis (NASH) mice fed high-fat feed; type: in vivo, C57BL/6 mice; details: for Liver coefficient (liver weight/body weight) / Liver weight: 28 days; for Liver weight: X ± SD
Protocol: The test compounds were 4 and 7, respectively; the positive control silymarin was purchased from Shanghai Dibai Biotechnology Co., Ltd., with the batch number HH06.
Low-dose group (35 mg/kg) solution preparation: the quantitative test compound was precisely weighed and a certain amount of normal saline was added to prepare the oral suspension solution with the concentration of 3.5 mg/mL. The administration volume was 10 mL/kg.
High-dose group (70 mg/kg) solution preparation: the quantitative test compound was precisely weighed and a certain amount of normal saline was added to prepare the oral suspension solution with the concentration of 7.0 mg/mL. The administration volume was 10 mL/kg.
High-fat feed: basic feed ingredients were corn, flour, imported fish meal, soybean meal, secondary meal, yeast meal, soybean oil, etc. The high-fat feed was prepared from 73.6% basic feed with 10% lard, 10% egg yolk powder, 5% sucrose, 1.2% cholesterol and 0.2% pig bile salt.
Source, species, strain: C57BL/6 mice, provided by Beijing Vital River Laboratory Animal Technology Co., Ltd. Nanjing Branch (experimental animal production license: SCXK (Su) 2016-0003); experimental animal use license: SYXK (Jun) 2012-0049; age: 6-8 weeks at the beginning of dosing; weight: 18-22 g; gender: half male and half female.
After 3 days of adaptive feeding with normal feed, the mice were randomly assigned according to body weight: 8 mice were fed with normal feed and set as normal control (NC); the rest of mice were fed with high-fat feed until the end of the experiment. The mice were weighed and recorded every 3 days. After feeding with high-fat diet for 56 days (8 weeks), blood samples were collected from the orbital vein of mice to detect the blood biochemical indexes to identify whether the modelling was successful.
After successful modeling, the mice in the high-fat feed group were randomly divided into 6 groups with 8 animals in each group, including model group, compound 4 low dose group, compound 4 high dose group, compound 7 low dose group, compound 7 high dose group and silymarin high-dose group. The mice in each group were administered intragastrically according to the animal's body weight every day for 28 consecutive days (4 weeks). At the same time, during the administration period, the mice in each administration group and model group continued to be fed with high-fat feed until the end of the experiment. The normal control group was administered the corresponding volume of normal saline.
On the last day of the experiment, the mice in each group were fasted for 8 hours, blood was taken from the orbit and the serum was separated and then stored at −20° C. After blood collection, the mice were sacrificed and the liver was quickly separated, weighed and stored in a refrigerator at −80° C. Serum samples and liver tissue samples were subjected to determinations of serum triglyceride (TG), serum total cholesterol (TC), serum high-density lipoprotein (HDL-C), serum low-density lipoprotein (LDL-C), serum alanine aminotransferase (ALT), serum aspartate aminotransferase (AST), serum tumor necrosis factor alpha (TNFα), liver triglycerides (TG), liver total cholesterol (TC), liver malondialdehyde (MDA), liver superoxide dismutase (SOD); in addition, some livers of mice in the blank control group, model group, compound 7 low-dose group and silymarin high-dose group were fixed in neutral formaldehyde fixed solution and then HE staining was performed to analyzed the pathological changes of liver tissue.

**Q.** Which results are given for `COc1cc(C2Oc3cc(C4Oc5cc(O)cc(O)c5CC4O)cc(O)c3OC2CO)ccc1O` (stereo not shown) [Compound 7, 2-{8-hydroxy-3-(4-hydroxy-3-methoxyphenyl)-2-hydroxymethyl-2,3-dihydrobenzo[b][1,4]dioxan-6-yl}chroman-3,5,7-triol]?
**A.** solubility at 2 h ([1]; PBS pH = 4.0, 25° C.): 209 µM (≈ 101 µg/mL); solubility at 2 h ([1]; PBS pH = 7.4, 25° C.): 214 µM (≈ 104 µg/mL); Solubility in PBS buffer solution compared with silymarin (in words) ([1]; pH 4.0 and 7.4): significantly higher than that of silymarin; TG ([2]; 35 mg/kg/day): 1.22 ± 0.06 mmol/L; Liver coefficient (liver weight/body weight) ([2]; 35 mg/kg/day intragastric): 4.53 ± 0.38 %; Liver weight ([2]; 35 mg/kg/day intragastric): 1.40 ± 0.05 g; TG ([2]; 70 mg/kg/day): 1.25 ± 0.06 mmol/L; Liver coefficient (liver weight/body weight) ([2]; 70 mg/kg/day intragastric): 4.51 ± 0.28 %; Liver weight ([2]; 70 mg/kg/day intragastric): 1.41 ± 0.02 g; Therapeutic effect on non-alcoholic steatohepatitis in mice (in words) ([2]; 35 and 70 mg/kg): significant therapeutic effects; MDA ([2]; liver, 35 mg/kg/day): 2.84 ± 0.24 nmol/mg; SOD ([2]; liver, 35 mg/kg/day): 18.54 ± 4.41 U/mg; TC ([2]; liver, 35 mg/kg/day): 1.53 ± 0.06 mmol/L; MDA ([2]; liver, 70 mg/kg/day): 2.79 ± 0.21 nmol/mg; SOD ([2]; liver, 70 mg/kg/day): 19.44 ± 3.11 U/mg; TC ([2]; liver, 70 mg/kg/day): 1.54 ± 0.09 mmol/L; Liver histopathology (HE staining) ([2]; low-dose group (35 mg/kg)): no lipid droplet vacuoles caused by steatosis; ALT ([2]; serum, 35 mg/kg/day): 63.03 ± 30.59 U/L; AST ([2]; serum, 35 mg/kg/day): 115.16 ± 13.42 U/L; HDL-C ([2]; serum, 35 mg/kg/day): 0.83 ± 0.35 mmol/L; LDL-C ([2]; serum, 35 mg/kg/day): 1.95 ± 0.50 mmol/L; TC ([2]; serum, 35 mg/kg/day): 2.59 ± 0.38 mmol/L; TG ([2]; serum, 35 mg/kg/day): 1.13 ± 0.06 mmol/L; TNF-α ([2]; serum, 35 mg/kg/day): 414.26 ± 11.57 ng/L; ALT ([2]; serum, 70 mg/kg/day): 75.75 ± 27.48 U/L; AST ([2]; serum, 70 mg/kg/day): 123.61 ± 5.41 U/L; HDL-C ([2]; serum, 70 mg/kg/day): 0.89 ± 0.46 mmol/L; LDL-C ([2]; serum, 70 mg/kg/day): 1.85 ± 0.37 mmol/L; TC ([2]; serum, 70 mg/kg/day): 2.63 ± 0.81 mmol/L; TG ([2]; serum, 70 mg/kg/day): 1.11 ± 0.07 mmol/L; TNF-α ([2]; serum, 70 mg/kg/day): 425.80 ± 9.77 ng/L
